From patent publication US12662493B2, “Non-immunosuppressive FK506 analogs and use thereof” (The Johns Hopkins University, priority 2019, dated 2026)

Key:
[1] = tested on: BMP signaling pathway (ID1 gene promoter); assay: BMP-response-element (BRE) luciferase pathway reporter in Jurkat T cells; assay type: cell-based; conditions: for BRE reporter (ID-1 promoter luciferase) activation: 18 h, normalized to DMSO; for reduction of FK506- or FKVP-induced BRE reporter activity: LDN at 100 nM
Experimental: (§1) Jurkat (E6.1, ATCC) cells were cultured in RPMI with 10% FBS and 1.5% PennStrep. Jurkat cells (1×10^6) were transfected with 10 μg of BRE-Luciferase (kindly provided by Martine Roussel & Peter ten Dijke) or NFAT-Luciferase cDNA (Promega) by electroporation (BioRad, square-wave, 250V, […]) in 400 μL serum/antibiotic free RPMI with 0.5% DMSO. Thirty minutes after transfection, cells were transferred to complete RPMI and rested overnight. Before plating, cells were re-suspended in fresh media and diluted to 0.5×10^6 cells/mL. HEK293T cells were cultured in DMEM with 10% FBS, 1% PennStrep, and 500 μg/mL G418 (Corning). Cells were transfected using SuperFect reagent and supplied transfection protocols. HUVEC cells were cultured in Lonza Endothelial Cell Growth Medium (EGM-2) and used between passages 3 and 7. All cells were cultured at 37° C. with 5% CO2.
Jurkat T cells transfected with BRE-Luc were split into a 96-well plate (80 μL/well of 0.5×10^6 cells/mL)) and treated with previously stated compounds/proteins (20 μL of 5X stock in RPMI, 0.5% DMSO) for 18 h. rBMP-4 and […] (R&D) were used as positive and negative controls, respectively. Plates were centrifuged at 3000 rpm for 10 min, then carefully aspirated. Cells were re-suspended in 100 μL lysis buffer (per well) and placed on a plate-shaker for 30 min. An aliquot of 80 μL of lysate was transferred to a white-walled 96-well plate, and luminescence was recorded 2 seconds after automated injection of luciferase substrate. Luminescence values were background subtracted (lysis buffer+substrate) and normalized to DMSO control values.
FKBP12KO Jurkat T cells transfected with FKBP12-SNAP plasmid were selected with 1200 μg/mL G418 for seven days before use in BRE-Luc assays.

[2] = tested on: full-thickness excisional wounds; conditions: mouse, in vivo; cited from earlier work
[3] = tested on: cell migration stimulated by CXCL12; conditions: cited from earlier work
Jurkat T cells = assay: Resazurin-based cell viability assay of Jurkat cells; conditions: 3 days, concentrations up to 10 μM
Experimental: as §1
Jurkat or HUVEC cells were plated at 1000 cells/well in 180 μL growth media before addition of 20 μL of 10X drug/protein stock. After incubation for 72 h, 22 μL of a resazurin sodium salt solution (0.1 mg/mL stock in water) was added to each well and allowed to incubate at 37° C. The metabolic conversion of resazurin dye was monitored by absorbance at 570 nm after 6 h. After background subtraction (media only+dye), absorbance values were left as arbitrary absorbance units or normalized to those obtained from cells treated with DMSO.

[4] = tested on: BMP type 1 receptor (SMAD1/5 phosphorylation); assay: SMAD1/5 phosphorylation Western blot in Jurkat cells; assay type: cell-based; conditions: LDN treatment
[5] = tested on: full-thickness excisional wounds; assay: In vivo excisional wound model in diabetic GK rats; parameters: species or system Goto-Kakizaki (GK) type-2 diabetic rats
Experimental: Goto-Kakizaki (GK) type-2 diabetic rats obtained from Charles River (Boston, MA) were housed in a pathogen-free facility and cared for according to NIH guidelines and a protocol approved by the Johns Hopkins University Animal Care and Use Committee (ACUC). Both male and female GK rats at age of 4-5 months were used in this study.
(§2) Full-thickness wounds were created in the dorsal skin of rats with a sterile disposable biopsy punch (8 mm in diameter). The animals were injected subcutaneously with saline, AMD3100 (1 mg/kg) plus FK506 (0.1 mg/kg) or AMD3100 (1 mg/kg) plus FKVP (0.1 mg/kg) immediately after wounding and every other day until complete healing, defined as complete re-epithelialization of the wound area. For assessing the role of BMP signaling, animals were injected intraperitoneally (i.p.) with LDN-193189 (2 mg/kg/day) in addition to standard saline or AF treatment. Wounds were evaluated daily according to the method described previously (Lin et al., 2014).
The one-way analysis of variance (ANOVA) was used to determine the statistically difference in wound healing among AF, AF+LDN, Saline and S+LDN groups or between AF, AV and Saline groups when comparing days of wound healing.

[6] = tested on: CD133+ stem cells in wound sites; assay: CD133 immunohistochemistry of wound tissue of GK rats; assay type: in vivo, Goto-Kakizaki (GK) type-2 diabetic rats; conditions: day 7, versus AF
Experimental: as §2
Cut sections of 5 μm were prepared from frozen tissue for immunohistochemistry staining. Frozen sections were fixed with acetone at −20° C. for 10 min and dried for 1 h at room temperature. After inactivation of endogenous peroxidase and blocking of nonspecific antibody binding, the specimens were incubated with anti-CD133 (1:300, ab19898; Abcam) at 4° C. overnight. The tissue sections were then subsequently incubated with biotin-conjugated goat anti-rabbit IgG (1:200, #14708S Cell Signaling, Danvers, MA) for 30 minutes at room temperature. The VectaStain Elite ABC kit (HRP) (Vector Laboratories, Burlingame, CA) was used to increase the sensitivity of the staining. […]

**Q.** For `c1cc(CN2CCCNCCNCCCNCC2)ccc1CN1CCCNCCNCCCNCC1` [AMD3100, 1,1′-[1,4-phenylenebis(methylene)]bis-1,4,8,11-tetraazacyclo-tetradecane], which “BRE reporter (ID-1 promoter luciferase) activation” value [1] is on record?
**A.** no effect on ID-1 promoter stimulation

**Q.** And the “healing, AMD3100 treatment alone” value [2]?
**A.** only slightly faster healing

**Q.** What about the IC50 [3] of the same molecule?
**A.** 51 ± 17 nM

**Q.** With `C=CC[C@@H]1/C=C(\C)C[C@H](C)C[C@H](OC)[C@H]2O[C@@](O)(C(=O)C(=O)N3CCCC[C@H]3C(=O)O[C@H](/C(C)=C/[C@@H]3CC[C@@H](O)[C@H](OC)C3)[C@H](C)[C@@H](O)CC1=O)[C@H](C)C[C@@H]2OC` [FK506] as the molecule, how does the cell viability (Jurkat T cells) read?
**A.** did not affect cell viability

**Q.** Which “reduction of FK506- or FKVP-induced BRE reporter activity” value [1] does the source give for `c1ccc2c(-c3cnn4cc(-c5ccc(N6CCNCC6)cc5)cnc34)ccnc2c1` [LDN-193189] here?
**A.** completely blocked

**Q.** What about the “effect on FK506/FKVP-induced SMAD1/5 phosphorylation” value [4] of the same molecule?
**A.** abolished

**Q.** And the “time for complete healing, LDN added to AF combination” value ([5]; LDN-193189 2 mg/kg/day i.p. plus AF)?
**A.** 25 days

**Q.** What about the “effect on wound healing, LDN alone” value ([5]; LDN-193189 2 mg/kg/day i.p. with saline) of the same molecule?
**A.** no effect on wound healing

**Q.** What about the “number of CD133+ cells in the wounds, LDN added to AF combination” value [6] of the same molecule?
**A.** dramatically reduced

B1: Noggin: extracellular BMP-inhibitor protein (protein, UniProt Q13253 28-232, looked up)
Noggin: QHYLHIRPAPSDNLPLVDLIEHPDPIFDPKEKDLNETLLRSLLGGHYDPGFMATSPPEDRPGGGGGAAGGAEDLAELDQLLRQRPSGAMPSEIKGLEFSEGLAQGKKQRLSKKLRRKLQMWLWSQTFCPVLYAWNDLGSRFWPRYVKVGSCFSKRSCSVPEGMVCKPSKSVHLTVLRWRCQRRGGQRCGWIPIQYPIISECKCSC
**Q.** With B1 as the molecule, how does the “reduction of FK506- or FKVP-induced BRE reporter activity” value [1] read?
**A.** not effective at reducing

B2: BMP4: recombinant BMP-4 protein, positive control of the BRE reporter (protein, UniProt P12644 293-408, looked up)
Bone morphogenetic protein 4: SPKHHSQRARKKNKNCRRHSLYVDFSDVGWNDWIVAPPGYQAFYCHGDCPFPLADHLNSTNHAIVQTLVNSVNSSIPKACCVPTELSAISMLYLDEYDKVVLKNYQEMVVEGCGCR
**Q.** For B2, which “BRE reporter (ID-1 promoter luciferase) activation” value [1] is on record?
**A.** strong induction of luciferase expression
